Experimental data published in paper PMC5794780, “ATP-dependent conformational change in ABC-ATPase RecF serves as a switch in DNA repair” (Scientific Reports, 2018).

T1: TTERecF-ATP dimer (Thermoanaerobacter tengcongensis MB4, UniProt Q8RDL3 1-364)
T1 sequence: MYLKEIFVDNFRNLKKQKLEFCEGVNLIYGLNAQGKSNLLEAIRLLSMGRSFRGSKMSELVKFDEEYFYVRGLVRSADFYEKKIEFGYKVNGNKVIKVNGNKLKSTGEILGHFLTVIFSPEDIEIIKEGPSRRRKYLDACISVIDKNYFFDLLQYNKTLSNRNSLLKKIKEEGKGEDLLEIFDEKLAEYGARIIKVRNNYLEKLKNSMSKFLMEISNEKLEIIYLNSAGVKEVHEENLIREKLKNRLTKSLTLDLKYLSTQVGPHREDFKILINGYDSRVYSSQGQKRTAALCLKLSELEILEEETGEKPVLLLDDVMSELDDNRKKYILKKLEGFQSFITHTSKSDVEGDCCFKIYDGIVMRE


Key:
[1] = target: T2, TTERecF (Caldanaerobacter subterraneus, UniProt Q8RDL3, Q286A); assay: isothermal titration calorimetry; format: binding; conditions: pH 7.0, 20 mM Tris-HCl, 200 mM NaCl, 25 °C; one-site model; signature motif mutant
T2 construct: gene recF; 42 kDa monomer, 84 kDa dimer with ATP or ATPγS
T2 sequence (Q8RDL3 whole entry Q286A): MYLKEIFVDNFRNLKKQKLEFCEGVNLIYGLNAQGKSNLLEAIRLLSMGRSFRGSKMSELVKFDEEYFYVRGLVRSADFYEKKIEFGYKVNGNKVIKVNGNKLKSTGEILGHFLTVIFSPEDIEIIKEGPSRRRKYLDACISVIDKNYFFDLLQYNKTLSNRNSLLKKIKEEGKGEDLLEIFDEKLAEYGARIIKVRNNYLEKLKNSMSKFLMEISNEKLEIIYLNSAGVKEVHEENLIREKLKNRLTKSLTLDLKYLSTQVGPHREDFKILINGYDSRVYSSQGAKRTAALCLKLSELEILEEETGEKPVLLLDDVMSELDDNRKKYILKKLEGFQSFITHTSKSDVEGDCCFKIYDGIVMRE

[2] = target: T3, TTERecF (Caldanaerobacter subterraneus, UniProt Q8RDL3, G35A); assay: isothermal titration calorimetry; format: binding; conditions: pH 7.0, 20 mM Tris-HCl, 200 mM NaCl, 25 °C; one-site model; Walker A mutant
T3 construct: gene recF; 42 kDa monomer, 84 kDa dimer with ATP or ATPγS
T3 sequence (Q8RDL3 whole entry G35A): as the sequence (Q8RDL3 whole entry Q286A) above, with G35A, A286Q counted along it

[3] = target: T4, TTERecF (Caldanaerobacter subterraneus, UniProt Q8RDL3, S283A); assay: isothermal titration calorimetry; format: binding; conditions: pH 7.0, 20 mM Tris-HCl, 200 mM NaCl, 25 °C; one-site model; signature motif mutant
T4 construct: gene recF; 42 kDa monomer, 84 kDa dimer with ATP or ATPγS
T4 sequence (Q8RDL3 whole entry S283A): as the sequence (Q8RDL3 whole entry Q286A) above, with S283A, A286Q counted along it

[4] = target: T5, TTERecF (Caldanaerobacter subterraneus, UniProt Q8RDL3, S282A); assay: isothermal titration calorimetry; format: binding; conditions: pH 7.0, 20 mM Tris-HCl, 200 mM NaCl, 25 °C; one-site model; signature motif mutant
T5 construct: gene recF; 42 kDa monomer, 84 kDa dimer with ATP or ATPγS
T5 sequence (Q8RDL3 whole entry S282A): as the sequence (Q8RDL3 whole entry Q286A) above, with S282A, A286Q counted along it

[5] = target: T6, TTERecF (Caldanaerobacter subterraneus, UniProt Q8RDL3, N38A); assay: isothermal titration calorimetry; format: binding; conditions: pH 7.0, 20 mM Tris-HCl, 200 mM NaCl, 25 °C; one-site model; Walker A mutant
T6 construct: gene recF; 42 kDa monomer, 84 kDa dimer with ATP or ATPγS
T6 sequence (Q8RDL3 whole entry N38A): as the sequence (Q8RDL3 whole entry Q286A) above, with N38A, A286Q counted along it

[6] = target: T7, TTERecF (Caldanaerobacter subterraneus, UniProt Q8RDL3, K36A); assay: isothermal titration calorimetry; format: binding
T7 construct: gene recF; 42 kDa monomer, 84 kDa dimer with ATP or ATPγS
T7 sequence (Q8RDL3 whole entry K36A): as the sequence (Q8RDL3 whole entry Q286A) above, with K36A, A286Q counted along it

[7] = target: T8, TTERecF (Caldanaerobacter subterraneus, UniProt Q8RDL3, S37A); assay: isothermal titration calorimetry; format: binding
T8 construct: gene recF; 42 kDa monomer, 84 kDa dimer with ATP or ATPγS
T8 sequence (Q8RDL3 whole entry S37A): as the sequence (Q8RDL3 whole entry Q286A) above, with S37A, A286Q counted along it

[8] = target: T9, TTERecF (Caldanaerobacter subterraneus, UniProt Q8RDL3); assay: isothermal titration calorimetry; format: binding
T9 construct: gene recF; 42 kDa monomer, 84 kDa dimer with ATP or ATPγS

[9] = target: T1, TTERecF-ATP dimer; assay: BLI; ATP (1 mM in preincubation); kd 1.44E-03 s-1; BLI: 20 mM Tris-HCl pH 7.0, 200 mM NaCl, 0.05% Tween 20, 25 C; biotinylated DNA on streptavidin sensors; no Mg2+ stated; conditions: protein: recombinant; tags: N-terminal His6; chain copies: 2; label: 5' biotin

| Kd [6] [µM] | Kd [7] [µM] | Molecule | KD [1] | hardly interacted [2] | KD [3] | KD [4] | hardly interacted [5] | Kd [8] [µM] | Kd [9] [µM] |
| --- | --- | --- | --- | --- | --- | --- | --- | --- | --- |
| 38 ± 8.7 | 27 ± 7.9 | Nc1ncnc2c1ncn2[C@@H]1O[C@H](COP(=O)(O)OP(=O)(O)OP(=O)(O)O)[C@@H](O)[C@H]1O [ATP] | conserved mutant residues S282A, S283A, and Q286A in signature motif was similar | The mutants G35A and N38A hardly interacted with ATP | conserved mutant residues S282A, S283A, and Q286A in signature motif was similar | conserved mutant residues S282A, S283A, and Q286A in signature motif was similar | The mutants G35A and N38A hardly interacted with ATP | 1.3 | – |
| – | – | Nc1ncnc2c1ncn2[C@@H]1O[C@H](CO[P@](=O)(O)O[P@](=O)(O)O[P@@](=O)(O)S)[C@@H](O)[C@H]1O [ATPɤS] | – | – | – | – | – | 32 | – |
| – | – | ACCTTATGGAAAGCATCGTAG (ssDNA) [21mer ssDNA] | – | – | – | – | – | – | 0.016 |
